Results published in patent publication US8586603B2, “Aminotetraline derivatives” (priority 2009, dated 2013).
pEC50, pKi: −log10 of the molar value. Where “and” joins values, the source holds several entries; their conditions need not be identical. Equal entries are not always repeated. Where two headings read alike, the source gives them in different places.

Columns and labels:
[1] = target: T1, porcine cortical p5-HT1a serotonin receptor (Sus scrofa, UniProt A0A4X1UTF5); assay: Receptor binding assay, [3H]WAY100635 competition, porcine cortical membranes; conditions: for pKi: means of 2-8 individual experiments each done as triplicate; for selectivity ratio p5-HT1a: reference receptor of the ratio (=1)
T1 construct: membrane homogenates prepared from porcine striatal or cortical tissue; from tissue; host or cells: porcine cortex
T1 sequence (A0A4X1UTF5 1-422): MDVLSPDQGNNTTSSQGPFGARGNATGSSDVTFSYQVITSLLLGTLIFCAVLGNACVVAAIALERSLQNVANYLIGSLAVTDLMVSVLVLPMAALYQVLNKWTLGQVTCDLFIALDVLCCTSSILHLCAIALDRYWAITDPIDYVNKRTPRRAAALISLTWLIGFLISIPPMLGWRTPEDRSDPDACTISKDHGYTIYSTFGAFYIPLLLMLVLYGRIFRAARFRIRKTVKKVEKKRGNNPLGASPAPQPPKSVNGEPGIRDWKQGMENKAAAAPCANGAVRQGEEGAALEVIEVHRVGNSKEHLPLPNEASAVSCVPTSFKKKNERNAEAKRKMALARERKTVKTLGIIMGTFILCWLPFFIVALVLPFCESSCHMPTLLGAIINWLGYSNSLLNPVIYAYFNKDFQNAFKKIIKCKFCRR

[2] = target: T2, porcine cortical p5-HT2 serotonin receptor (Sus scrofa, UniProt P50129); assay: Receptor binding assay, [3H]ketanserin competition, porcine cortical membranes; conditions: for pKi: means of 2-8 individual experiments each done as triplicate; for selectivity ratio p5-HT2: vs p5-HT1a
T2 construct: membrane homogenates prepared from porcine striatal or cortical tissue; from tissue; host or cells: porcine cortex
T2 sequence (P50129 whole entry): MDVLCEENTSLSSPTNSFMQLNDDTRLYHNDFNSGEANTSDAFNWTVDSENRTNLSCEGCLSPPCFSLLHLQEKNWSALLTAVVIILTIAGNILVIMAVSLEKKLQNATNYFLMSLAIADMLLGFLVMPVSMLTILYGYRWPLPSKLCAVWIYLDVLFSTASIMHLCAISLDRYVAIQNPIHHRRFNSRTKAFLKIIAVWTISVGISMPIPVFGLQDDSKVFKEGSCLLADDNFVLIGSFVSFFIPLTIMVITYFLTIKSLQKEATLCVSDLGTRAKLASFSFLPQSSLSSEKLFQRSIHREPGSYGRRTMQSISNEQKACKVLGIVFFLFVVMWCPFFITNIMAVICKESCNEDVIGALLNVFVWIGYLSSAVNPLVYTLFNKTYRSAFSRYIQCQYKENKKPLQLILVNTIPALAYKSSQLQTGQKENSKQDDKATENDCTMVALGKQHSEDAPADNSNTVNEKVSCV

[3] = target: T3, porcine striatal pD1 dopamine receptor (Sus scrofa, UniProt P50130); assay: Receptor binding assay, [3H]SCH 23390 competition, porcine striatal membranes; conditions: for pKi: means of 2-8 individual experiments each done as triplicate; for selectivity ratio pD1: vs p5-HT1a
T3 construct: membrane homogenates prepared from porcine striatal or cortical tissue; from tissue; host or cells: porcine striatum
T3 sequence (P50130 whole entry): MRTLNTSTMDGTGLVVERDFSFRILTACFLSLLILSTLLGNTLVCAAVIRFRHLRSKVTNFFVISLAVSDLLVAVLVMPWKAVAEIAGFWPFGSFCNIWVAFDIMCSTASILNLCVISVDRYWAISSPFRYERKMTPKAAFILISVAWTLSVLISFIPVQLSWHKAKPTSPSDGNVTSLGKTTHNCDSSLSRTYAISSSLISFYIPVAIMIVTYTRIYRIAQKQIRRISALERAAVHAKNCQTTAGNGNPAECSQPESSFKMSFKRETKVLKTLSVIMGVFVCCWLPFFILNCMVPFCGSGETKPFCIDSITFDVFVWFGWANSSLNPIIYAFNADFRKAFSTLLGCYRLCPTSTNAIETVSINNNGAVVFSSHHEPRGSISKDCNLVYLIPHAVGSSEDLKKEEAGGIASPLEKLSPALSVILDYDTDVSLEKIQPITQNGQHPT

[4] = target: T4, human dopamine receptor subtype hD2long (Homo sapiens, UniProt P14416); assay: Receptor binding assay, [3H]spiperone competition, CHO cell membranes; conditions: for pKi: means of 2-8 individual experiments each done as triplicate; for selectivity ratio hD2long: vs p5-HT1a
T4 construct: expressed in transfected cells; host or cells: CHO
T4 sequence (P14416 whole entry): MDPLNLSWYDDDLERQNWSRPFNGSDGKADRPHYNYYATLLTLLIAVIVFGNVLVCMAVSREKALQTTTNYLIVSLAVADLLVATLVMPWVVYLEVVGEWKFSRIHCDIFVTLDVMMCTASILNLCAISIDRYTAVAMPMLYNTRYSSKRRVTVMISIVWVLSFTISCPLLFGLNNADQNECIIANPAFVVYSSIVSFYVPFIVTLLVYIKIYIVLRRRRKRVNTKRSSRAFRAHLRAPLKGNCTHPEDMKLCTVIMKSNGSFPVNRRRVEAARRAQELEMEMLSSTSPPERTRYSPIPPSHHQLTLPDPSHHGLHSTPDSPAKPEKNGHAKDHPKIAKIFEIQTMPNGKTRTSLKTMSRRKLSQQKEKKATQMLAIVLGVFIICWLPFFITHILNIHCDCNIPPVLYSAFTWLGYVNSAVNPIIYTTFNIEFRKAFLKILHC
Experimental: (§1) Receptor binding data were determined when performing competition binding assays with membrane preparations of cloned cells (stably transfected Chinese Hamster Ovary cells (CHO)) expressing the human receptors and the following radioligands: [^3H]spiperone at the human dopamine receptor subtypes hD2long, hD2short, D3, and hD4.4.
(§2) Selectivity ratios were calculated by division of the Ki values of the various compounds at the respective receptors through the Ki values at the 5HT1a receptor.

[5] = target: T5, human dopamine receptor subtype hD2short (Homo sapiens, UniProt P14416); assay: as above; conditions: for pKi: means of 2-8 individual experiments each done as triplicate; for selectivity ratio hD2short: vs p5-HT1a
T5 construct: expressed in transfected cells; host or cells: CHO
T5 sequence (P14416 1-414 isoform P14416-2): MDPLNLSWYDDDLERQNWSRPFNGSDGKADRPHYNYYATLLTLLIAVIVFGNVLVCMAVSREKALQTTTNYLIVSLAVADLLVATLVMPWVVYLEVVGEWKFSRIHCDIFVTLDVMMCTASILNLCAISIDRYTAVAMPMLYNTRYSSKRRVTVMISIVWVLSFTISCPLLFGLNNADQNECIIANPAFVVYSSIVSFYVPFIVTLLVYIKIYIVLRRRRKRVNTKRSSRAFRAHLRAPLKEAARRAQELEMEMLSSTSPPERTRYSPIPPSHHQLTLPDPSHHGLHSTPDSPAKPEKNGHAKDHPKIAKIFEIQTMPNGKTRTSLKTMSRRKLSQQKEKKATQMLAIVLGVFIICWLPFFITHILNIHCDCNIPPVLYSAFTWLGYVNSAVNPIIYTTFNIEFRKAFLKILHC
Experimental: as §1, §2

[6] = target: T6, human dopamine receptor subtype hD3 (Homo sapiens, UniProt P35462); assay: as above; conditions: for pKi: means of 2-8 individual experiments each done as triplicate; for selectivity ratio hD3: vs p5-HT1a
T6 construct: expressed in transfected cells; host or cells: CHO
T6 sequence (P35462 whole entry): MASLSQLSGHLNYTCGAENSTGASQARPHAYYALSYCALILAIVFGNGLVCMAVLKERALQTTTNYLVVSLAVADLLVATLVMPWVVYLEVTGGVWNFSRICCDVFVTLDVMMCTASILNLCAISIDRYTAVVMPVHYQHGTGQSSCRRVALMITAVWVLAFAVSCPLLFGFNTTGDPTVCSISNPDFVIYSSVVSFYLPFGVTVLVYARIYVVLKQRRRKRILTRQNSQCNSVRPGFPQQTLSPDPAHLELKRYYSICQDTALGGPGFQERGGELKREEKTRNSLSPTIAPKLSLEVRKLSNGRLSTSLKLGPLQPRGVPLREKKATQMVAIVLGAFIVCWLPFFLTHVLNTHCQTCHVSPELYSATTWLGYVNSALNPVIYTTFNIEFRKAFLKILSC
Experimental: as §1, §2

[7] = target: T7, human dopamine receptor subtype hD4.4 (Homo sapiens, UniProt P21917); assay: as above; conditions: for pKi: means of 2-8 individual experiments each done as triplicate; for selectivity ratio hD4.4: vs p5-HT1a
T7 construct: expressed in transfected cells; host or cells: CHO
T7 sequence (P21917 1-419): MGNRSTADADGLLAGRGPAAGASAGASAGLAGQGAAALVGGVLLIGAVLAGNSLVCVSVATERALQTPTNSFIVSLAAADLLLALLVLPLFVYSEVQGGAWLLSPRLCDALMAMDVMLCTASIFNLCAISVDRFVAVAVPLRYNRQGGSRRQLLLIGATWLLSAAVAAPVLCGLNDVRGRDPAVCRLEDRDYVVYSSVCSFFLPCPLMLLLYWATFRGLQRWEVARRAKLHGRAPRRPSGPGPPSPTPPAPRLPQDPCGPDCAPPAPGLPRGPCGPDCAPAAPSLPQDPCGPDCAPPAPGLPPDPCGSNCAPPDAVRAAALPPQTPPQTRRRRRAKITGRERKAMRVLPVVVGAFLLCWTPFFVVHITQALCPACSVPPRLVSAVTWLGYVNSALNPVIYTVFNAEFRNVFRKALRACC
Experimental: Receptor binding data were determined when performing competition binding assays with membrane preparations of cloned cells (stably transfected Chinese Hamster Ovary cells (CHO)) expressing the human receptors and the following radioligands: [^3H]spiperone at the human dopamine receptor subtypes hD2long, hD2short, D3, and hD4.4. […].
as §2

[8] = tested on: porcine cortical pα1 adrenergic receptor; assay: Receptor binding assay, [3H]prazosin competition, porcine cortical membranes; conditions: vs p5-HT1a
[9] = target: T8, porcine cortical pα1 adrenergic receptor; assay: as above; conditions: means of 2-8 individual experiments each done as triplicate
T8 construct: Ki pα1; other: means of 2-8 individual experiments each done as triplicate

[10] = target: porcine cortical pα2 adrenergic receptor; assay: Receptor binding assay, [3H]RX821002 competition, porcine cortical membranes; conditions: means of 2-8 individual experiments each done as triplicate
human 5-HT1a receptor = target: T9, human 5-HT1a receptor (Homo sapiens, UniProt P08908); assay: [35S]GTPγS functional assay; format: biochemical; conditions: for Emax: read-out: intrinsic activity [% rel. to serotonin]
T9 construct: expressed in transfected cells
T9 sequence (P08908 1-422): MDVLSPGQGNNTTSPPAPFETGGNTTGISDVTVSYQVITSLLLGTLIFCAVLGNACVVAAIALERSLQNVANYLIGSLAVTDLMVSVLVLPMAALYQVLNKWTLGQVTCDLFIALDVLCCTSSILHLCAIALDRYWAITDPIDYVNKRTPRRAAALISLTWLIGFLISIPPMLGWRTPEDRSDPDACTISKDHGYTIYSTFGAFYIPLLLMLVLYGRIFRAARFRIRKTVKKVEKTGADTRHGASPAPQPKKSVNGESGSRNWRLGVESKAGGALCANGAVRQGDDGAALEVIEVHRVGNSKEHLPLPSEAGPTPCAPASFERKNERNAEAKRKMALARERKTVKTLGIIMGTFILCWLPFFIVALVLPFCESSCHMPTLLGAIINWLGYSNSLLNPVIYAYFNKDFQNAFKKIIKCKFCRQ
Experimental: Specific binding of [^35S]GTPγS is stimulated by activation of the stably expressed human 5-HT1a receptor in a dose-dependent way by agonists for this GPCR and is determined by measuring the radioactive label of the membrane. Non-linear regression analysis of the resulting dose-response curves yields the EC50 value in [nM] representing the half maximal concentration which is necessary to activate the receptor completely.

[11] = mean values of 2-8 individual experiments

## CCCN(CCc1cc(C)ccc1C)C1CCc2cccc(O)c2C1 (centres unmarked) [Compound 7, N-[2-(2,5-Dimethylphenyl)ethyl]-N-(8-hydroxytetralin-2-yl)-N-propylamine]
[1]
  pKi: 8.77
  selectivity ratio p5-HT1a: 1
[2]
  pKi: 5.77
  selectivity ratio p5-HT2: 1 000
[3]
  pKi: 5.62
  selectivity ratio pD1: 1 400
[4]
  pKi: 6.85
  selectivity ratio hD2long: 82
[5]
  pKi: 7.05
  selectivity ratio hD2short: 53
[6]
  pKi: 6.89
  selectivity ratio hD3: 76
[7]
  pKi: 6.31
  selectivity ratio hD4.4: 290
[8]
  selectivity ratio pα1: 46
[9]
  pKi: 7.11
other
  melting point: 102 °C

## CCCN(CCc1cccs1)[C@@H]1CCc2cccc(O)c2C1 [Compound 1a, (R)—N-(8-Hydroxytetralin-2-yl)-N-propyl-N-[2-(2-thienyl)ethyl]amine]
[1]
  pKi: 9.28
  selectivity ratio p5-HT1a: 1
[2]
  pKi: 5.60
  selectivity ratio p5-HT2: 4 800
[3]
  pKi: 5.06
  selectivity ratio pD1: 17 000
[4]
  pKi: 6.62
  selectivity ratio hD2long: 460
[5]
  pKi: 6.59
  selectivity ratio hD2short: 500
[6]
  pKi: 7.00
  selectivity ratio hD3: 190
[7]
  pKi: 7.00
  selectivity ratio hD4.4: 190
[8]
  selectivity ratio pα1: 1 200
[9]
  pKi: 6.19
[10]
  pKi: 7.25
Human 5-HT1a receptor; in words
  agonist activity at the human 5-HT1a receptor: full agonist activity
Human 5-HT1a receptor; [11]
  pEC50: 8.72 to 9.19 and 9.19
Human 5-HT1a receptor
  Emax: 103%

## CCCN(CCc1cccs1)[C@@H]1CCc2cccc(OC)c2C1 [Compound 2a, (R)—N-(8-Methoxytetralin-2-yl)-N-propyl-N-[2-(2-thienyl)ethyl]amine]
[1]
  pKi: 8.14
[2]
  pKi: 5.22
[3]
  pKi: 5.28
[4]
  pKi: 6.12
[5]
  pKi: 6.08
[6]
  pKi: 6.64
[7]
  pKi: 6.06
[9]
  pKi: 6.85
[10]
  pKi: 7.19
Human 5-HT1a receptor; [11]
  pEC50: 8.96
Human 5-HT1a receptor
  Emax: 82%

## N-(2-Adamantylethyl)-N-(8-hydroxytetralin-2-yl)-N-propylamine [Compound 9]
[1]
  pKi: 8.46
  selectivity ratio p5-HT1a: 1
[2]
  pKi: 5.80
  selectivity ratio p5-HT2: 1600
[3]
  pKi: 5.59
  selectivity ratio pD1: 740
[4]
  pKi: 7.80
  selectivity ratio hD2long: 4.6
[5]
  pKi: 7.92
  selectivity ratio hD2short: 3.4
[6]
  pKi: 7.41
  selectivity ratio hD3: 11
[7]
  pKi: 6.46
  selectivity ratio hD4.4: 100
[8]
  selectivity ratio pα1: 160
[9]
  pKi: 6.24
Human 5-HT1a receptor
  pEC50: 8.72
Human 5-HT1a receptor; [35S]GTPγS incorporation relative to serotonin (=100%)
  intrinsic activity [% rel. to serotonin]: 88%

## CCCN(CCc1ccc(O)cc1)C1CCc2cccc(O)c2C1 (centres unmarked) [Compound 5, N-[2-(4-Hydroxyphenyl)ethyl]-N-(8-hydroxytetralin-2-yl)-N-propylamine]
[1]
  pKi: 8.96
  selectivity ratio p5-HT1a: 1
[2]
  pKi: 5.18
  selectivity ratio p5-HT2: 6 000
[3]
  pKi: 5.21
  selectivity ratio pD1: 5 600
[4]
  pKi: 6.47
  selectivity ratio hD2long: 310
[5]
  pKi: 7.07
  selectivity ratio hD2short: 80
[6]
  pKi: 7.02
  selectivity ratio hD3: 86
[7]
  pKi: 6.24
  selectivity ratio hD4.4: 520
[8]
  selectivity ratio pα1: 79
[9]
  pKi: 7.06

## CCCN(CCc1ccccc1)C1CCc2cccc(OC)c2C1 (centres unmarked) [Compound 4, N-(8-Methoxytetralin-2-yl)-N-(2-phenylethyl)-N-propylamine]
[1]
  pKi: 8.60
[2]
  pKi: 5.38
[3]
  pKi: 5.14
[4]
  pKi: 6.48
[5]
  pKi: 6.64
[6]
  pKi: 7.29
[7]
  pKi: 6.28
[9]
  pKi: 6.72
[10]
  pKi: 7.22

## N-(2-Adamantylethyl)-N-(8-methoxytetralin-2-yl)-N-propylamine [Compound 10]
[1]
  pKi: 7.19
  selectivity ratio p5-HT1a: 1
[2]
  pKi: 4.85
  selectivity ratio p5-HT2: 220
[3]
  pKi: 4.92
  selectivity ratio pD1: 180
[4]
  pKi: 6.42
  selectivity ratio hD2long: 5.8
[5]
  pKi: 6.72
  selectivity ratio hD2short: 2.9
[6]
  pKi: 6.59
  selectivity ratio hD3: 4.0
[7]
  pKi: 5.74
  selectivity ratio hD4.4: 28
[8]
  selectivity ratio pα1: 75
[9]
  pKi: 5.31
